# Source: PubChem BioAssay (NCI)
#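 1) Cells in 96-well plates. 2) Compound, 48 h, 5 concentrations. 3) Linear interpolation between surrounding doses. 4) Unreached endpoint = highest concentration. GI50 = concentration required for 50% inhibition of growth. TGI is the concentration that stops growth completely.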
# How the values were obtained:
# Experiment in all cases: inhibition of tumour cell growth, NCI panel, 48 h
# [1] = tested on: 786-0 renal
# [2] = tested on: A498 renal
# [3] = tested on: A549 NSCLC
# [4] = tested on: ACHN renal
# [5] = tested on: BT-549 breast
# [6] = tested on: CAKI-1 renal
# [7] = tested on: CCRF-CEM leukemia
# [8] = tested on: COLO 205 colon
# [9] = tested on: DU-145 prostate
# [10] = tested on: HCC-2998 colon
# [11] = tested on: HCT-116 colon
# [12] = tested on: HCT-15 colon
# [13] = tested on: HL-60(TB) leukemia
# [14] = tested on: HOP-62 NSCLC
# [15] = tested on: HOP-92 NSCLC
# [16] = tested on: HS 578T breast
# [17] = tested on: HT29 colon
# [18] = tested on: IGROV1 ovarian
# [19] = tested on: K-562 leukemia
# [20] = tested on: KM12 colon
# [21] = tested on: LOX IMVI melanoma
# [22] = tested on: M14 melanoma
# [23] = tested on: MALME-3M melanoma
# [24] = tested on: MCF7 breast
# [25] = tested on: MDA-MB-231 breast
# [26] = tested on: MDA-MB-435
# [27] = tested on: MOLT-4 leukemia
# [28] = tested on: NCI-H226 lung
# [29] = tested on: NCI-H460 lung
# [30] = tested on: NCI-H522 lung
# [31] = tested on: NCI/ADR-RES ovarian
# [32] = tested on: OVCAR-3 ovarian
# [33] = tested on: OVCAR-4 ovarian
# [34] = tested on: OVCAR-5 ovarian
# [35] = tested on: OVCAR-8 ovarian
# [36] = tested on: RPMI-8226 leukemia
# [37] = tested on: RXF 393 renal
# [38] = tested on: SF-268 CNS
# [39] = tested on: SF-295 CNS
# [40] = tested on: SF-539 CNS
# [41] = tested on: SK-MEL-2 melanoma
# [42] = tested on: SK-MEL-28 melanoma
# [43] = tested on: SK-MEL-5 melanoma
# [44] = tested on: SK-OV-3 ovarian
# [45] = tested on: SN12C renal
# [46] = tested on: SNB-19 CNS
# [47] = tested on: SNB-75 CNS
# [48] = tested on: SR leukemia
# [49] = tested on: SW-620 colon
# [50] = tested on: T-47D breast
# [51] = tested on: TK-10 renal
# [52] = tested on: U251 CNS
# [53] = tested on: UACC-257 melanoma
# [54] = tested on: UO-31 renal
structure (smiles),measurement,setting,value
CC#Cc1nc2ccccc2c(=O)[nH]1,GI50,[1],4.23 µM
same,TGI,[1],14.7 µM
same,GI50,[2],1.38 µM
same,TGI,[2],2.74 µM
same,GI50,[3],4.9 µM
same,TGI,[3],34.2 µM
same,GI50,[4],3.65 µM
same,TGI,[4],23.3 µM
same,GI50,[5],2.34 µM
same,TGI,[5],5.18 µM
same,GI50,[6],6.15 µM
same,TGI,[6],28.3 µM
same,GI50,[7],2.62 µM
same,TGI,[7],25.4 µM
same,GI50,[8],2.03 µM
same,TGI,[8],3.7 µM
same,GI50,[9],4.88 µM
same,TGI,[9],> 100 µM
same,GI50,[10],1.99 µM
same,TGI,[10],4.17 µM
same,GI50,[11],3.24 µM
same,TGI,[11],13 µM
same,GI50,[12],2.73 µM
same,TGI,[12],8.91 µM
same,GI50,[13],3.11 µM
same,TGI,[13],9.62 µM
same,GI50,[14],3.18 µM
same,TGI,[14],9.43 µM
same,GI50,[15],2.3 µM
same,TGI,[15],7.74 µM
same,GI50,[16],4.92 µM
same,TGI,[16],> 100 µM
same,GI50,[17],3.79 µM
same,TGI,[17],13.9 µM
same,GI50,[18],2.51 µM
same,TGI,[18],6.97 µM
same,GI50,[19],3.93 µM
same,TGI,[19],> 100 µM
same,GI50,[20],2.68 µM
same,TGI,[20],6.58 µM
same,GI50,[21],1.82 µM
same,TGI,[21],3.43 µM
same,GI50,[22],3.28 µM
same,TGI,[22],9.71 µM
same,GI50,[23],4.21 µM
same,TGI,[23],15 µM
same,GI50,[24],3.07 µM
same,TGI,[24],> 100 µM
same,GI50,[25],2.1 µM
same,TGI,[25],4.71 µM
same,GI50,[26],2.04 µM
same,TGI,[26],5.35 µM
same,GI50,[27],2.9 µM
same,TGI,[27],8.51 µM
same,GI50,[28],2.3 µM
same,TGI,[28],5.84 µM
same,GI50,[29],3.89 µM
same,TGI,[29],20.2 µM
same,GI50,[30],5.27 µM
same,TGI,[30],16.7 µM
same,GI50,[31],3.89 µM
same,TGI,[31],63.9 µM
same,GI50,[32],2.11 µM
same,TGI,[32],4.16 µM
same,GI50,[33],4.15 µM
same,TGI,[33],27.5 µM
same,GI50,[34],6.1 µM
same,TGI,[34],27.1 µM
same,GI50,[35],4.89 µM
same,TGI,[35],64.9 µM
same,GI50,[36],1.52 µM
same,TGI,[36],5.73 µM
same,GI50,[37],1.57 µM
same,TGI,[37],3.27 µM
same,GI50,[38],3.17 µM
same,TGI,[38],11.1 µM
same,GI50,[39],4.1 µM
same,TGI,[39],20.6 µM
same,GI50,[40],2.76 µM
same,TGI,[40],9.14 µM
same,GI50,[41],3.2 µM
same,TGI,[41],7.21 µM
same,GI50,[42],4.55 µM
same,TGI,[42],33.9 µM
same,GI50,[43],1.65 µM
same,TGI,[43],3.32 µM
same,GI50,[44],41.7 µM
same,TGI,[44],> 100 µM
same,GI50,[45],3.02 µM
same,TGI,[45],9.8 µM
same,GI50,[46],13.3 µM
same,TGI,[46],52.3 µM
same,GI50,[47],2.09 µM
same,TGI,[47],6.43 µM
same,GI50,[48],2.38 µM
same,TGI,[48],19 µM
same,GI50,[49],3.7 µM
same,TGI,[49],23 µM
same,GI50,[50],5.71 µM
same,TGI,[50],23 µM
same,GI50,[51],5.06 µM
same,TGI,[51],26.3 µM
same,GI50,[52],3.42 µM
same,TGI,[52],12.8 µM
same,GI50,[53],3.4 µM
same,TGI,[53],15.4 µM
same,GI50,[54],3.18 µM
same,TGI,[54],8.87 µM
